1 compound from patent publication US10562869B2, “Oxadiazole compounds” (REMYND NV, priority 2014, dated 2020) can be followed below.

The subject of one assay is db/db mice. The assay can be described thus: In vivo evaluation in db/db mice (type 2 diabetes model). The following applies: 15 mg/kg IP, vs vehicle. An excerpt: For in vivo evaluation of compound efficacy, male BKS.Cg-+Leprdb/Leprdb/OlaHsd mice (db/db mice—Harlan) were used. The db/db phenotype results from a mutation in the leptin receptor gene, leading to a splice variant (Chen, Charlat et al. 1996; Lee, Proenca et al. 1996). The development of type 2 diabetes in db/db mice is associated with reduced insulin levels due to progressive β-cell failure following an initial period of hypersecretion of insulin. Since these mice develop type 2 diabetes in a manner related to pathology development in humans, and the model is accepted as in vivo model for evaluation of novel anti-diabetic treatments by the Food and Drug Administration (FDA, US), it is a highly relevant model for testing candidate drugs for efficacy.
Compounds were administered intraperitoneal (IP) or oral (PO) at a dose of maximally 50 mg/kg. Mice were subjected to metabolic analysis weekly or bi-weekly. These tests included but were not limited to determination of fasting (5 hrs) and non-fasting blood glucose levels, plasma insulin levels, % glycated hemoglobin (HbA1c) levels, glucose tolerance test and insulin sensitivity test.

The next assay deals with INS-1E cells. The assay can be described thus: Cytokine-induced caspase-3/7 activation in INS-1E cells (beta cell stress/apoptosis model, Caspase-Glo 3/7). The following applies: Rattus norvegicus, cytokine mix (IFN-γ, IL-1β, TNF-α), 24 hours, caspase 3/7 activity, read-out: CYT EC50. In kind it is cell-based. An excerpt:
The INS-1E cell line, a rat insulinoma cell line, has been characterized extensively. INS-1E cells respond to glucose by secreting insulin and, unlike most other immortalized β-cell lines, they do this in a consistent manner over time. The cells are sensitive to hyperglycemia-, free fatty acid (FFA)-, and cytokine-induced stress. Prolonged stress ultimately leads to induction of apoptotic pathways and, if stress is not counter-acted, to apoptosis. Caspase-3 and -7 play a central role downstream where various apoptotic pathways merge. As such, activation (i.e. cleavage) of these caspases forms a relevant primary read-out to evaluate protective activity of compounds against stress-induced apoptosis.
To evaluate the efficacy of different compounds to prevent induction of apoptosis, an in vitro screen was developed in which INS-1E cells were exposed to a cytokine mix (IFN-γ, 5 ng/ml; IL-1β, 20 pg/ml; TNF-α, 0.25 ng/ml). The degree of induction of apoptosis was evaluated using a substrate for cleaved caspase-3 and -7, i.e. a proluminescent caspase-3/7 DEVD aminoluciferin substrate with a thermostable luciferase (Caspase-Glo® 3/7 assay; Promega, cat. G8092).
On day 0, INS-1E cells were plated in a white-walled 96-well microplate (Greiner, cat. 655098) at 20,000 cells per well in 100 μl complete medium (RPMI containing 11 mM glucose supplemented with 5% FCS, 100 IU/ml penicillin, 100 μg/ml streptomycin, 10 mM HEPES, 1 mM Sodium Pyruvate and 50 μM 2-Mercapto-ethanol). On day 2, 100 μl medium containing cytokines and compound dissolved in DMSO was added to the cells. Wells without cytokines containing DMSO and wells with cytokines and DMSO were included to evaluate the degree of caspase 3/7 activation by the cytokine mix. After 24 hours exposure to cytokines and/or compound, Caspase-Glo® 3/7 reagent was added to the cells and caspase activity was determined by measuring luminescence.
To evaluate compound efficacy, the “toxicity window” was calculated by subtracting caspase activity of wells without stressor from activity of wells with stressor but without compound. The amount of caspase activity in the latter wells was normalized to 1 and used as reference. Subsequently, caspase activity in the wells with stressor and varying concentrations of compound was calculated relative to the wells without compound. Plotting caspase activity vs the log 10 of the concentration of compound permitted calculation of the EC50 values for the compounds which typically lied between 0.0001 and 10 μM. Compounds with an EC50<10 μM were considered active.

The subject of another assay is M17_3SYN cells. Briefly: Paraquat-induced cytotoxicity (LDH) in α-synuclein over-expressing M17_3SYN neuroblastoma cells. The following applies: Homo sapiens, Neuroblastoma cell, 48 h, toxicity inhibition (LDH) in M17_3SYN cells challenged with 6 mM paraquat, 2 days; read-out: SYN EC50. In kind it is cell-based, human. In outline:
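Human BE-M17 neuroblastoma cells stably overexpressing wild-type α-synuclein challenged with paraquat (final 6 mM) for 2 days at 37 °C alongside compounds over a concentration range. Cytotoxicity as LDH released relative to total LDH; EC50 from dose-dependent inhibition curve.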

By EC50 is commonly meant the concentration needed to bring the measured effect to its halfway point. In the case of `CSc1ccc(S(=O)(=O)N2CCN(c3nc(C4(c5ccc(F)cc5)CC4)no3)CC2)cc1` [Cmpd110, 1-{3-[1-(4-Fluoro-phenyl)-cyclopropyl]-[1,2,4]oxadiazol-5-yl}-4-(4-methylsulfanyl-benzenesulfonyl)-piperazine], the Plasma insulin levels entry in the assay on db/db mice (after 6 weeks of treatment, FIG. 1C) was “significantly higher”. Besides, the “weight gain (non-fasted body weight)” value in the assay on db/db mice (FIG. 1A) is given as “increased”. Also, in the assay with db/db mice (FIG. 1B), the “Fasted blood glucose levels” value is recorded as “significantly lower”. Also, the EC50 in the assay on INS-1E cells is 10 nM; with M17_3SYN cells, 30 nM.
